# Data published in ChEMBL document CHEMBL5053489, “Effects of Eugenol and Dehydrodieugenol B from Nectandra leucantha against Lipopolysaccharide (LPS)-Induced Experimental Acute Lung Inflammation” (J Nat Prod, 2021).
# The source made the active and inactive calls. The rule behind the calls is not given here.
# Key:
# [1] = biological target: c-Jun N-terminal kinase (Mus musculus) (UniProt Q91Y86+Q9WTU6+Q61831); assay: Inhibition of LPS-induced JNK phosphorylation in BALB/c mouse at 30 mg/kg administered 6 hrs after LPS stimulation by western blot analysis; type: organism-based
# c-Jun N-terminal kinase (Mus musculus), sequence (Q61831 whole entry, looked up): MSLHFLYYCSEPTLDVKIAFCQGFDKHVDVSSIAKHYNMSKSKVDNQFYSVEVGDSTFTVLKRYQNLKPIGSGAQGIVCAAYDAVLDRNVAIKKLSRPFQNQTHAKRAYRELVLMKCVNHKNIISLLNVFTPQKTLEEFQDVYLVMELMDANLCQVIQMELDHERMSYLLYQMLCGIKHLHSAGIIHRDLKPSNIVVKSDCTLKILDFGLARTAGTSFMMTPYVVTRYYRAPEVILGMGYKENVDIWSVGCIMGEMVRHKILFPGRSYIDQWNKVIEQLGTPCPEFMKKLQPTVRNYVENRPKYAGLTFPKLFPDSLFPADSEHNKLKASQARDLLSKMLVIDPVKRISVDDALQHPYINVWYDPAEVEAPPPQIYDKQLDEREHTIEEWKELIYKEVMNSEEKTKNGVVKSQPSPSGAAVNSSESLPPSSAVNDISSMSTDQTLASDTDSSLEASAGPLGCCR
# c-Jun N-terminal kinase (Mus musculus), sequence (Q91Y86 whole entry, looked up): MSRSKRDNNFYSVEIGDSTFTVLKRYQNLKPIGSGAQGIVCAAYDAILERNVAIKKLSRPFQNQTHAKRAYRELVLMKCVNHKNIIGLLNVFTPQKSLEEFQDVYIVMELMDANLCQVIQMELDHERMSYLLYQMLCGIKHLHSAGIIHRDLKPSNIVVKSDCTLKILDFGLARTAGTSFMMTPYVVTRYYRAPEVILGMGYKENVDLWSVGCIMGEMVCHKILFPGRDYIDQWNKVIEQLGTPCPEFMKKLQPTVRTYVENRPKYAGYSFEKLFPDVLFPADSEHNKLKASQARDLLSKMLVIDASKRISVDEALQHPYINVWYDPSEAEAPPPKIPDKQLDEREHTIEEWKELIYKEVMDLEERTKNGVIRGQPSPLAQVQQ
# c-Jun N-terminal kinase (Mus musculus), sequence (Q9WTU6 whole entry, looked up): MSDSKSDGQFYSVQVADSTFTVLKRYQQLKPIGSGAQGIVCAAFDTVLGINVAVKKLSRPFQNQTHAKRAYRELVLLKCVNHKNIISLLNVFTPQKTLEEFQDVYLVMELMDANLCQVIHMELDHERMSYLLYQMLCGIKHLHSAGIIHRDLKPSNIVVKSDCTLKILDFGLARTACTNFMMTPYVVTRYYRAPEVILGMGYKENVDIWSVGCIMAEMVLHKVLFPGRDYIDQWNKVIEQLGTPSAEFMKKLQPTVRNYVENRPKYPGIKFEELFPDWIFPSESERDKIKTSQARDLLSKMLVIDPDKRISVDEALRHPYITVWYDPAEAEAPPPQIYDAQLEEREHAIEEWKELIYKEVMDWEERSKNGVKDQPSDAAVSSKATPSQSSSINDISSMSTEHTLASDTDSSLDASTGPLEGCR
# Mus musculus [2] = assay: Antiinflammatory activity in BALB/c mouse model of LPS-induced acute respiratory distress syndrome assessed as reduction in polymorphonuclear cells in alveolar septa at 30 mg/kg administered 6 hrs after LPS-stimulation by pointing-count technique; type: functional, organism-based
# Mus musculus [3] = assay: Antiinflammatory activity in BALB/c mouse model of LPS-induced acute respiratory distress syndrome assessed as reduction in lymphocytes in peripheral blood at 30 mg/kg administered 6 hrs after LPS-stimulation and measured after 24 hrs by Diff-quick stain based analysis; type: functional, organism-based
# Mus musculus [4] = assay: Toxicity in BALB/c mouse model of LPS-induced acute respiratory distress syndrome assessed as reduction in body mass loss percentage at 30 mg/kg administered 6 hrs after LPS-stimulation; type: organism-based; conditions: in vivo
# Mus musculus [5] = assay: Antiinflammatory activity in BALB/c mouse model of LPS-induced acute respiratory distress syndrome assessed as reduction in monocytes in peripheral blood at 30 mg/kg administered 6 hrs after LPS-stimulation and measured after 24 hrs by Diff-quick stain based analysis; type: functional, organism-based
# Mus musculus [6] = assay: Antiinflammatory activity in BALB/c mouse model of LPS-induced acute respiratory distress syndrome assessed as reduction in neutrophils in peripheral blood at 30 mg/kg administered 6 hrs after LPS-stimulation and measured after 24 hrs by Diff-quick stain based analysis; type: functional, organism-based
# Mus musculus [7] = assay: (§1) Antiinflammatory activity in BALB/c mouse model of LPS-induced acute respiratory distress syndrome assessed as reduction in collagen deposition in lung parenchyma at 30 mg/kg administered 6 hrs after LPS-stimulation and measured after 24 hrs by pointing-count technique based immunohistochemistry analysis; type: functional, organism-based
# Mus musculus [8] = assay: Antiinflammatory activity in BALB/c mouse model of LPS-induced acute respiratory distress syndrome assessed as reduction in total inflammatory cells in BALF at 30 mg/kg administered 6 hrs after LPS-stimulation by Diff-quick stain based analysis; type: functional, organism-based
# Mus musculus [9] = assay: Antiinflammatory activity in BALB/c mouse model of LPS-induced acute respiratory distress syndrome assessed as reduction in density of TIMP-1 positive cells in lung parenchyma at 30 mg/kg administered 6 hrs after LPS-stimulation by pointing-count technique based immunohistochemistry analysis; type: functional, organism-based
# Mus musculus [10] = assay: Antiinflammatory activity in BALB/c mouse model of LPS-induced acute respiratory distress syndrome assessed as improvement in lung mechanics by measuring respiratory system resistance at 30 mg/kg administered 6 hrs after LPS-stimulation and measured after 24 hrs by forced oscillation technique; type: functional, organism-based
# Mus musculus [11] = assay: Antiinflammatory activity in BALB/c mouse model of LPS-induced acute respiratory distress syndrome assessed as reduction in density of MMP-9 positive cells in lung parenchyma at 30 mg/kg administered 6 hrs after LPS-stimulation by pointing-count technique based immunohistochemistry analysis; type: functional, organism-based
# Mus musculus [12] = assay: Antiinflammatory activity in BALB/c mouse model of LPS-induced acute respiratory distress syndrome assessed as improvement in lung mechanics by measuring respiratory system elastance at 30 mg/kg administered 6 hrs after LPS-stimulation and measured after 24 hrs by forced oscillation technique; type: functional, organism-based
# Mus musculus [13] = assay: Antiinflammatory activity in BALB/c mouse model of LPS-induced acute respiratory distress syndrome assessed as reduction in inflammatory cells in alveolar septa at 30 mg/kg administered 6 hrs after LPS-stimulation; type: functional, organism-based
# Mus musculus [14] = assay: Antiinflammatory activity in BALB/c mouse model of LPS-induced acute respiratory distress syndrome assessed as improvement in lung mechanics by measuring tissue damping at 30 mg/kg administered 6 hrs after LPS-stimulation and measured after 24 hrs by forced oscillation technique; type: functional, organism-based
# Mus musculus [15] = assay: as §1, with “9-iso-PGF2alpha expression” for “collagen deposition”, “alveolar septa” for “lung parenchyma”; type: functional, organism-based
# Mus musculus [16] = assay: Antiinflammatory activity in BALB/c mouse model of LPS-induced acute respiratory distress syndrome assessed as reduction in neutrophils in BALF at 30 mg/kg administered 6 hrs after LPS-stimulation by Diff-quick stain based analysis; type: functional, organism-based
# Mus musculus [17] = assay: Antiinflammatory activity in BALB/c mouse model of LPS-induced acute respiratory distress syndrome assessed as reduction in IL-1beta level in BALF at 30 mg/kg administered 6 hrs after LPS-stimulation by ELISA; type: functional, organism-based
# Mus musculus [18] = assay: Antiinflammatory activity in BALB/c mouse model of LPS-induced acute respiratory distress syndrome assessed as reduction in TNF-alpha level in BALF at 30 mg/kg administered 6 hrs after LPS-stimulation by ELISA; type: functional, organism-based
# Mus musculus [19] = assay: Antiinflammatory activity in BALB/c mouse model of LPS-induced acute respiratory distress syndrome assessed as reduction in IL-6 level in BALF at 30 mg/kg administered 6 hrs after LPS-stimulation by ELISA; type: functional, organism-based
# Mus musculus [20] = assay: Antiinflammatory activity in BALB/c mouse model of LPS-induced acute respiratory distress syndrome assessed as reduction in neutrophils in BALF at 20 to 60 mg/kg administered 6 hrs after LPS-stimulation; type: functional, organism-based; conditions: dose 20-60 mg/kg
# Mus musculus [21] = assay: Antiinflammatory activity in BALB/c mouse model of LPS-induced acute respiratory distress syndrome assessed as reduction in iNOS expression in alveolar septa at 30 mg/kg administered 6 hrs after LPS-stimulation and measured after 24 hrs by pointing-count technique based immunohistochemistry analysis; type: functional, organism-based
# Mus musculus [22] = assay: Antiinflammatory activity in BALB/c mouse model of LPS-induced acute respiratory distress syndrome assessed as reduction in macrophages in BALF at 30 mg/kg administered 6 hrs after LPS-stimulation by Diff-quick stain based analysis; type: functional, organism-based
# Mus musculus [23] = assay: Antiinflammatory activity in BALB/c mouse model of LPS-induced acute respiratory distress syndrome assessed as reduction in pulmonary edema by measuring wet/dry weight ratio at 30 mg/kg administered 6 hrs after LPS-stimulation and measured after […]; type: functional, organism-based
# Mus musculus [24] = assay: Antiinflammatory activity in BALB/c mouse model of LPS-induced acute respiratory distress syndrome assessed as improvement in lung mechanics by measuring tissue elastance at 30 mg/kg administered 6 hrs after LPS-stimulation and measured after 24 hrs by forced oscillation technique; type: functional, organism-based
# Mus musculus [25] = assay: Antiinflammatory activity in BALB/c mouse model of LPS-induced acute respiratory distress syndrome assessed as reduction in leukocytes in peripheral blood at 30 mg/kg administered 6 hrs after LPS-stimulation and measured after 24 hrs by Neubauer counting chamber based analysis; type: functional, organism-based
smiles,measurement,setting,value
C=CCc1ccc(Oc2cc(CC=C)cc(OC)c2O)c(OC)c1,inhibition,[1],Active
C=CCc1ccc(O)c(OC)c1 [EUGENOL],Activity,Mus musculus [2],Active
same,Activity,Mus musculus [3],Active
same,inhibition,[1],Active
same,Activity,Mus musculus [4],Non-Toxic
same,Activity,Mus musculus [5],Active
same,Activity,Mus musculus [6],Active
same,Activity,Mus musculus [7],Active
same,Activity,Mus musculus [8],Active
same,Activity,Mus musculus [9],Active
same,Activity,Mus musculus [10],inactive
same,Activity,Mus musculus [11],Active
same,Activity,Mus musculus [12],Active
same,Activity,Mus musculus [13],Active
same,Activity,Mus musculus [14],Active
same,Activity,Mus musculus [15],Active
same,Activity,Mus musculus [16],Active
same,Activity,Mus musculus [17],Active
same,Activity,Mus musculus [18],inactive
same,Activity,Mus musculus [19],Active
same,Activity,Mus musculus [20],Active
same,Activity,Mus musculus [21],Active
same,Activity,Mus musculus [22],Active
same,Activity,Mus musculus [23],Active
same,Activity,Mus musculus [24],Active
same,Activity,Mus musculus [25],Active
